Structures can show the parent of a compound that is named as a salt. Where two headings read alike, the source gives them in different places.

The source of these data is PMC8286840, “Identifying SARS-CoV-2 antiviral compounds by screening for small molecule inhibitors of Nsp3 papain-like protease” (Biochemical Journal, 2021).

Assay [1] concerns the target T1, SARS-CoV-2 PLpro (nsp3 1564–1878) (Severe acute respiratory syndrome coronavirus 2, UniProt P0DTD1). The assay can be described thus: biochemical. Set-up: FRET-quenched peptide (Pro3) cleavage by PLpro, 10 min pre-incubation, slope over 20 min, normalised to no-compound control. The note with it: low concentration screen, read-out: % of control remaining.
Assay [2] addresses T1, SARS-CoV-2 PLpro (nsp3 1564–1878). The assay can be described thus: biochemical. Set-up: FRET-quenched peptide (Pro3) cleavage by PLpro, 10 min pre-incubation, slope over 20 min, normalised to no-compound control. The note with it: high concentration screen, read-out: % of control remaining.

Consider `COc1ccnc(C[S+]([O-])c2nc3cc(OC(F)F)ccc3[nH]2)c1OC` (stereo not drawn) [sodium 5-(difluoromethoxy)-2-((3,4-dimethoxypyridin-2-yl)methylsulfinyl)benzo[d]imidazol-1-ide hydrate], for which the remaining activity at 1.25 µM in assay [1] (Well no.=5829) is 95.3%. Moreover, the remaining activity at 3.75 µM in assay [2] (Well no.=5829) was found to be 96.9%.
In the case of `Cc1nc(NC(=O)N2CCC[C@H]2C(N)=O)sc1-c1ccnc(C(C)(C)C(F)(F)F)c1` [BYL719], the remaining activity at 1.25 µM in assay [1] (Well no.=5163) was determined as 102%. Also, the remaining activity at 3.75 µM in assay [2] (Well no.=5163) stood at 104%.
For `NCCCCCNCC12CC3CC(CC(C3)C1)C2` [IEM 1754 dihydrobroMide], in assay [1] (Well no.=5175), the remaining activity at 1.25 µM came out at 97.7%. Besides, the remaining activity at 3.75 µM in assay [2] (Well no.=5175) was 99.2%.
Turning to `O=C1CCN(c2ccccc2)N1` [Phenidone], in assay [1] (Well no.=3951), the remaining activity at 1.25 µM was 103%. Further, the remaining activity at 3.75 µM in assay [2] (Well no.=3951) amounted to 101%.
Regarding `O=c1ccn([C@@H]2O[C@H](COP(=O)(O)OP(=O)(O)O)[C@@H](O)[C@H]2O)c(=O)[nH]1` [Uridine-5'-diphosphate disodium salt], the remaining activity at 1.25 µM in assay [1] (Well no.=7718) is 96.1%. Moreover, in assay [2] (Well no.=7718), the remaining activity at 3.75 µM stood at 97.7%.
Take `CCCCCCCCCCC/C=C\C(C)(C)/C=C\CCCC(=O)O` [7,7-Dimethyleicosadienoic acid]: the remaining activity at 1.25 µM worked out at 101% in assay [1] (Well no.=4313) and 100% in assay [1] (Well no.=4412). In addition, the remaining activity at 3.75 µM was found to be 99.2% in assay [2] (Well no.=4313) and 101% in assay [2] (Well no.=4412).
For the compound `COc1c(O[C@@H]2O[C@H](CO)[C@@H](O)[C@H](O)[C@H]2O)cc2oc(-c3ccc(O)cc3)cc(=O)c2c1O` [Homoplantaginin], in assay [1] (Well no.=6446), the remaining activity at 1.25 µM was found to be 94.1%. For the same compound, the remaining activity at 3.75 µM in assay [2] (Well no.=6446) amounted to 95.8%.
In the case of `Cc1[nH]c2ccc(Cl)cc2c1C1=CCNCC1` [EMD386088], in assay [1] (Well no.=5430), the remaining activity at 1.25 µM came out at 95.7%. In assay [2] (Well no.=5430), the remaining activity at 3.75 µM turned out to be 97.4%.
Consider `O=C(O)CCCCCCCCCC(=O)O` [Undecanedioic acid], for which the remaining activity at 1.25 µM in assay [1] (Well no.=6785) was determined as 102%. Further, in assay [2] (Well no.=6785), the remaining activity at 3.75 µM worked out at 99.4%.
With `CCN(CC)CCNC(=O)c1cc(Cl)c(N)cc1OC` [Metoclopramide], the results for the remaining activity at 1.25 µM in assay [1] (Well no.=1696) and in assay [1] (Well no.=6425) were 101% and 99.2%, respectively. For the same compound, the remaining activity at 3.75 µM was 102% in assay [2] (Well no.=1696) and 95% in assay [2] (Well no.=6425).
For the compound `O=C[C@H](O)[C@@H](O)[C@H](O)CO` [Xylose], the results for the remaining activity at 1.25 µM in assay [1] (Well no.=6351) and in assay [1] (Well no.=8144) were 103% and 99.9%, respectively. The remaining activity at 3.75 µM in assay [2] (Well no.=6351) amounted to 105%; in assay [2] (Well no.=8144), 96.9%.
On to `CCc1nn(CCCN2CCN(c3cccc(Cl)c3)CC2)c(=O)n1CCOc1ccccc1` [2-{3-[4-(3-chlorophenyl)-1-piperazinyl]propyl}-5-ethyl-4-(2-phenoxyethyl)-2,4-dihydro-3H-1,2,4-triazol-3-one hydrochloride], for which the remaining activity at 1.25 µM in assay [1] (Well no.=5691) came to 99.4%. Also, the remaining activity at 3.75 µM in assay [2] (Well no.=5691) is 96.7%.
`CCOc1cc(/C=C2/C(=O)N(c3ccccc3)N=C2C)cc(Cl)c1OCC(=O)OC` [SJ-172550]: the remaining activity at 1.25 µM in assay [1] (Well no.=6354) worked out at 91.1%. Further, the remaining activity at 3.75 µM in assay [2] (Well no.=6354) stood at 90.9%.
Take `CC(C)[C@H]1C(=O)N[C@@H](CCCNC(=N)N)C(=O)NCC(=O)N[C@@H](CC(=O)O)C(=O)N[C@H](Cc2ccccc2)C(=O)N1C` [Cilengitide (EMD 121974, NSC 707544)]: in assay [1] (Well no.=5174), the remaining activity at 1.25 µM turned out to be 94.8%. Moreover, in assay [2] (Well no.=5174), the remaining activity at 3.75 µM worked out at 96.2%.
Take `CC(C)OC(=O)C(C(=O)OC(C)C)=C1SC=CS1` [Malotilate]: the remaining activity at 1.25 µM in assay [1] (Well no.=8884) is 85.8%. Moreover, the remaining activity at 3.75 µM in assay [2] (Well no.=8884) was 84.3%.
As to `CC(C)N(CCC(=O)c1ccc2ccccc2c1)Cc1ccccc1` [ZM 39923 hydrochloride - 3-Benzylisopropylamino-1-naphthalen-2-yl-propan-1-one hydrochloride], the remaining activity at 1.25 µM in assay [1] (Well no.=2390) was found to be 96.3%. In addition, in assay [2] (Well no.=2390), the remaining activity at 3.75 µM amounted to 98.1%.
Take `O=C1Nc2ccccc2/C1=C\c1c(Cl)[nH]c2ccccc12` [Cdk1 Inhibitor]: the remaining activity at 1.25 µM in assay [1] (Well no.=2364) stood at 101%. Further, the remaining activity at 3.75 µM in assay [2] (Well no.=2364) is 104%.
With `C[C@@H](O)[C@H]1C(=O)N2C(C(=O)O)=C(S[C@@H]3CN[C@H](C(=O)N(C)C)C3)[C@H](C)[C@H]12` [Meropenem], the remaining activity at 1.25 µM in assay [1] (Well no.=1973) was found to be 103%. For the same compound, the remaining activity at 3.75 µM in assay [2] (Well no.=1973) was 103%.
Regarding `CNS(=O)(=O)Cc1ccc2[nH]cc(CCN(C)C)c2c1` [Sumatriptan Succinate], the remaining activity at 1.25 µM in assay [1] (Well no.=2085) is 96.9%. Also, the remaining activity at 3.75 µM in assay [2] (Well no.=2085) turned out to be 97.6%.
Regarding `CCNC(=O)c1[nH]nc(-c2cc(Cl)c(O)cc2O)c1-c1ccc(OC)cc1` [VER-49009], the remaining activity at 1.25 µM in assay [1] (Well no.=8622) came out at 100%. Besides, the remaining activity at 3.75 µM in assay [2] (Well no.=8622) is 100%.
Take `COc1cc2ccc(=O)oc2cc1O` [Scopoletin]: the remaining activity at 1.25 µM in assay [1] (Well no.=3461) was 103%. In addition, the remaining activity at 3.75 µM in assay [2] (Well no.=3461) came to 102%.
As to `COc1ccc2c(c1O)-c1c(OC)c(OC)cc3c1[C@H](C2)N(C)CC3` [(+)-Isocorydine hydrochloride], in assay [1] (Well no.=3244), the remaining activity at 1.25 µM amounted to 93.2%. Moreover, the remaining activity at 3.75 µM in assay [2] (Well no.=3244) turned out to be 95.5%.
On to `C[C@H]1COc2c(N3CCN(C)CC3)c(F)cc3c(=O)c(C(=O)O)cn1c23` [Levofloxacin], for which the remaining activity at 1.25 µM in assay [1] (Well no.=2266) amounted to 97.9%. Also, in assay [2] (Well no.=2266), the remaining activity at 3.75 µM was 98.5%.
As for `c1ccc2c3c([nH]c2c1)CNCC3` [Noreleagnine], the remaining activity at 1.25 µM in assay [1] (Well no.=3260) turned out to be 101%. Besides, in assay [2] (Well no.=3260), the remaining activity at 3.75 µM stood at 101%.
As for `Cc1c(C(=O)NN2CCCCC2)nn(-c2ccc(Cl)cc2Cl)c1-c1ccc(Cl)cc1` [Rimonabant (Hydrochloride)], the remaining activity at 1.25 µM in assay [1] (Well no.=8011) turned out to be 99.6%. The remaining activity at 3.75 µM in assay [2] (Well no.=8011) was found to be 90.1%.
Take `CNCC[C@@H](Oc1ccc(C(F)(F)F)cc1)c1ccccc1` [R-(-)-Fluoxetine hydrochloride]: the remaining activity at 1.25 µM in assay [1] (Well no.=419) amounted to 92.7%. Besides, the remaining activity at 3.75 µM in assay [2] (Well no.=419) turned out to be 92.4%.
For the compound `CC/C=C\C/C=C\C/C=C\C/C=C\C/C=C\CCCCCC(=O)O` [Docosapentaenoic acid], the figures for the remaining activity at 1.25 µM in assay [1] (Well no.=4347) and in assay [1] (Well no.=4492) were 105% and 93.7%, respectively. Moreover, the remaining activity at 3.75 µM in assay [2] (Well no.=4347) is 105%; in assay [2] (Well no.=4492), 91.7%.
As to `CCCCOc1c(C(=O)c2c(F)cc(C)cc2F)c[nH]c2nncc1-2` [BMS-265246], the remaining activity at 1.25 µM in assay [1] (Well no.=5010) was determined as 95.8%. Also, in assay [2] (Well no.=5010), the remaining activity at 3.75 µM stood at 96.6%.
On to `NC1CCN(c2cccc(Cl)n2)CC1` [SR 57227A], for which, in assay [1] (Well no.=1262), the remaining activity at 1.25 µM was 103%. Moreover, the remaining activity at 3.75 µM in assay [2] (Well no.=1262) worked out at 102%.
